Data from article PMC7504039, “Tetrapeptide Ac-HAEE-NH2 Protects α4β2 nAChR from Inhibition by Aβ” (International Journal of Molecular Sciences, 2020).
Entries after “also recorded” stand apart in the source; their conditions may differ. Where two headings read alike, the source gives them in different places. Where a SMILES comes first, the peptide text is derived from it.

Key:
immobilized Aβ16 = target: T1, immobilized Aβ16 (Homo sapiens, UniProt P05067); assay: Direct binding assay: surface plasmon resonance, tetrapeptides over immobilized Aβ16-G4-C; conditions: for koff: read-out: koff × 10^-3 s^-1; for Ka × 10^-2 M^-1: 10 mM HEPES pH 6.8, Ka = kon/koff, mean±SD of three independent measurements
T1 construct: purchased Biopeptide (San Diego, CA, USA); host or cells: chemical synthesis
T1 sequence (P05067 with tags, fused parts or gaps limits assumed): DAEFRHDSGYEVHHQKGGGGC
Procedure: Surface plasmon resonance (SPR) was utilized to detect the direct binding of the tetrapeptides to immobilized Aβ16-G4-C. All SPR experiments were carried out on a BIAcore T100 instrument (GE Healthcare, IL, USA). Research grade sensor chips CM5 carrying the hydrophilic carboxymethylated dextran matrix, HEPES Buffered Saline (HBS) buffer (10 mM HEPES (4-(2-hydroxyethyl)-1-piperazineethanesulfonic acid)), pH 7.4, 150 mM NaCl, 3 mM EDTA, 0.005% surfactant P20), 1-ethyl-3-(3-dimethylaminopropyl)-carbodiimide (EDC), N-hydroxysuccinimide (NHS), 2-(2-pyridinyldithio)-ethaneamine (PDEA), and cysteine were purchased from Biacore (GE, Boston, MA, USA). All other chemicals and solvents were of HPLC-grade or better and were obtained from MilliporeSigma (St. Louis, MO, USA). All buffers were filtered (0.45 μm, nylon) prior to use.
Attachment of the synthetic peptide Aβ16-G4-C to the CM5 chip was performed according to the thiol bond formation protocol described in the Sensor surface handbook (GE Healthcare, Chicago, IL, USA). The carboxymethyl dextran matrix was activated by injection of a 1:1 mixture of EDC and NHS (30 μL, 400 mM EDC, 100 mM NHS) with the following injection of an 80 mM PDEA solution in 0.1 M sodium borate (pH 8.5). The Aβ16-G4-C solution was then injected into the activated flow cell (0.05 mg/mL peptide in 10 mM sodium acetate buffer, pH 4.5). Unreacted disulfide groups on the CM5 chip surface were capped with a 50 mM cysteine solution in 0.1 M sodium acetate buffer (pH 4.0). The change corresponding to the immobilization of Aβ16-G4-C was 1023 response units (RU). The flow rate used for all immobilization steps was 5 μL/min. An unmodified dextran surface was used as a reference surface.
Then, the binding affinities of the immobilized Aβ16-G4-C to the following peptide-analytes were measured. Samples of Ac-HAEE-NH2 and other tetrapeptides were prepared by dilution of respective stock solutions in the running buffer (10 mM HEPES, pH 6.8). Each analyte was diluted to different concentrations (0 μM, 50 μM, 100 μM, 200 μM, 500 μM, 1000 μM, 1500 μM, 2000 μM) and injected in multichannel mode (volume 50 μL and rate 10 μL/min) during 300 s. Then, the chip surface was exposed to the running buffer without analyte for 120 s. After each injection of the analyte, the surface was regenerated with 5 μL of the regeneration buffer (HBS buffer containing 10 mM HEPES, 3 mM EDTA, 0.005% surfactant P20 and 150 mM NaCl, pH 7.4). The signal from the reference surface was subtracted from the raw data, obtained from the flow cell with the immobilized ligand.
The kinetic rate constants were calculated from the sensorgrams by globally fitting the response curves obtained at various analyte concentrations using the Langmuir model (1:1 binding) in the BIAevaluation 4.1 program. The association (kon) and the dissociation (koff) rate constants were fitted simultaneously (1), dR/dt = kon C (Rmax − R) − koff R(1) where R stands for the biosensor response of the formed complex, C is the concentration of the analyte, and Rmax is the maximal theoretical value of the binding response for a given analyte.
Using the obtained data dissociation (Kd) constant was calculated from the ratios of the association (kon) and dissociation (koff) rate constants: Kd = koff/kon, Ka = kon/koff.

Aβ = conditions: previously shown; reference not given; cited from earlier work
rat α4β2 nAChR = assay: Two-electrode voltage clamp in Xenopus laevis oocytes expressing α4β2 nAChR; format: cell-based; conditions: for effect of washout with the peptide on current amplitude after Aβ42: 3 min, after 10 µM Aβ42
Procedure: Two-electrode voltage clamp electrophysiology on the α4β2 nAChR expressed in Xenopus laevis oocytes was performed according to previously published protocols [7]. Stage V ± VI Xenopus laevis oocytes were defolliculated with 1 mg/mL collagenase Type I (Life Technologies, Carlsbad, CA, USA) at room temperature (21–24 °C) for 2 h in Barth’s solution without calcium (88.0 mM NaCl, 1.1 mM KCl, 2.4 mM NaHCO3, 0.8 mM MgSO4, 15.0 mM HEPES/NaOH, pH 7.6). The oocytes were stored in Barth’s solution with calcium for 72–120 h (88.0 mM NaCl, 1.1 mM KCl, 2.4 mM NaHCO3, 0.3 mM Ca(NO3)2, 0.4 mM CaCl2, 0.8 mM MgSO4, 15.0 mM HEPES/NaOH, pH 7.6) supplemented with 63.0 μg/mL penicillin-G sodium salt, 40.0 μg/mL streptomycin sulfate.
Oocytes were injected with 3 ng plasmids coding the rat α4 and β2 nAChR subunits (pcDNA3.1 vector) in a molar ratio of 1:1 using an Auto-Nanoliter Injector NanoJect-2 (Drummond Scientific Company, Broomall, PA, USA) in a total injection volume of 23 nL. After injection, oocytes were incubated at 18 °C in Barth’s solution with calcium for 48–120 h. Electrophysiological recordings were made using a Turbo TEC-03X amplifier (npi electronic GmbH, Tamm, Germany) and WinWCP recording software (University of Strathclyde, Glasgow, UK). Oocytes were placed in a small recording chamber with a working volume of 50 μL and 100 μL of agonist (acetylcholine) solution in Barth’s buffer were applied to an oocyte. […] To allow receptor recovery from desensitization, the oocytes were superfused for 5–10 min with buffer (1 mL/min) between ligand applications. Electrophysiological recordings were performed at a holding potential of −60 mV.
Data are presented as means of at least three independent experiments ± SD. The comparison of data groups in electrophysiology studies was performed with ordinary one-way ANOVA. Post-hoc analysis was performed with the Tukey test. Shapiro-Wilk test was used to confirm the normality of the dataset. Statistical analysis was performed using GraphPad Prism 8.4.1 software (GraphPad Software Inc., CA, USA).

[1] = test system: amyloid load in the brains; design: method as in PMID 26402624; conditions: injections; cited from earlier work
Aβ16-G4-C, [Ac]-…-[NH2] = assay: SPR; Aβ16-G4-C immobilised by thiol coupling on a CM5 chip (1023 RU), BIAcore T100; tetrapeptides injected at 0-2000 μM, 10 μL/min, 300 s; running buffer 10 mM HEPES, pH 6.8; global fit, Langmuir 1:1 model; Kd = koff/kon
[2] = Table S2, SPR, immobilized Aβ16, 25 °C, 10 mM HEPES pH 6.8, mean±SD of three independent measurements
[3] = Table S2, SPR, immobilized Aβ16, 25 °C, 10 mM HEPES pH 6.8, mean±SD of three independent measurements, read-out: kon × M^-1 s^-1
[4] = SPR, immobilized Aβ16, 10 mM HEPES pH 6.8
[5] = Table S2, SPR, immobilized Aβ16, 25 °C
[6] = Table S2, SPR, immobilized Aβ16, 25 °C, 10 mM HEPES pH 6.8, mean±SD of three independent measurements, read-out: Kd × 10^4 M
[7] = SPR, BIAcore T100, Aβ16-G4-C on CM5 chip, running buffer 10 mM HEPES pH 6.8, 1:1 Langmuir global fit, Kd = koff/kon, read-out: dissociation constant Kd

Molecule | koff (immobilized Aβ16; [2]) [s⁻¹] | kon (immobilized Aβ16; [3]) [M⁻¹ s⁻¹] | Ka × 10^-2 M^-1 (immobilized Aβ16; [5]) | Kd (immobilized Aβ16; [6]) [µM] | also measured
CC(=O)N[C@@H](CC(=O)O)C(=O)N[C@@H](CC(=O)O)C(=O)N[C@@H](C)C(=O)N[C@@H](Cc1c[nH]cn1)C(N)=O [#2, Ac-DDAH-NH2] (Ac-DDAH-NH2) | 0.0154 ± 0.0001 | 0.52 ± 0.01 |  |  | Kd (immobilized Aβ16; read-out: Ka × 10^-2 M^-1 (converted)): 2970 µM
Ac-KAEE-NH2 |  |  |  |  | binding to Aβ16 in the SPR assay (in words) (immobilized Aβ16; [4]): no binding was detected at all
CC(=O)N[C@@H](CCCNC(=N)N)C(=O)N[C@@H](C)C(=O)N[C@@H](CCC(=O)O)C(=O)N[C@@H](CCC(=O)O)C(N)=O [Ac-RAEE-NH2] (Ac-RAEE-NH2) | 0.0112 ± 8e-05 | 1.5 ± 0.1 | 1.3±0.1 × 10^-2 M^-1 | 7700 ± 600 | binding to Aβ16 in the SPR assay (in words) (immobilized Aβ16; [4]): two orders of magnitude weaker binding than Ac-HAEE-NH2
CC(=O)N[C@@H](CC(=O)O)C(=O)N[C@@H](CC(=O)O)C(=O)N[C@@H](C)C(=O)N[C@@H](CCCCN)C(N)=O [#4, Ac-DDAK-NH2] (Ac-DDAK-NH2) | 0.0062 ± 0.0001 | 4.57 ± 0.09 | 7.3±0.3 × 10^-2 M^-1 | 1370 ± 50 | 
CC(=O)N[C@@H](CCC(=O)O)C(=O)N[C@@H](CC(=O)O)C(=O)N[C@@H](C)C(=O)N[C@@H](CCCNC(=N)N)C(N)=O [#18, Ac-EDAR-NH2] (Ac-EDAR-NH2) | 0.0047 ± 0.0001 | 0.13 ± 0.01 | 0.28±0.03 × 10^-2 M^-1 |  | 
CC(=O)N[C@@H](Cc1c[nH]cn1)C(=O)N[C@@H](C)C(=O)N[C@@H](CC(=O)O)C(=O)N[C@@H](CC(=O)O)C(N)=O [#1, Ac-HADD-NH2] (Ac-HADD-NH2) | 0.0104 ± 2e-05 | 3.2 ± 0.08 | 3.08±0.08 × 10^-2 M^-1 | 3250 ± 90 | 
CC(=O)N[C@@H](Cc1c[nH]cn1)C(=O)N[C@@H](C)C(=O)N[C@@H](CCC(=O)O)C(=O)N[C@@H](CCC(=O)O)C(N)=O [Ac-HAEE-NH2] (Ac-HAEE-NH2) | 3.5e-05 ± 8e-06 |  | 110±40 × 10^-2 M^-1 |  | Kd (immobilized Aβ16; [7]): 90 µM; kon (immobilized Aβ16; SPR, immobilized Aβ16, 10 mM HEPES pH 6.8, read-out: kon): 0.37 M⁻¹ s⁻¹; zinc-dependent oligomerization of Aβ (Aβ): prevent zinc-dependent oligomerization of Aβ; effect of washout with the peptide on current amplitude after Aβ42 (rat α4β2 nAChR; 25 µM in washout buffer, 100 µM ACh): did not affect the current amplitude; effect of washout with the peptide on current amplitude after Aβ42 (rat α4β2 nAChR; 50 µM in washout buffer, 100 µM ACh): less so at 50 µM; effect on Aβ42-induced inhibition when co-applied with Aβ42 (rat α4β2 nAChR; 100 µM Ac-HAEE-NH2 (10-times molar excess) with 10 µM Aβ42, 3 min pre-incubation, 100 µM ACh): the degree of inhibition was reduced significantly; also recorded: reduced the inhibitory effect of Aβ42 by half; leakage current after washout with peptide-containing buffer (rat α4β2 nAChR; 100 µM Ac-HAEE-NH2 washout after 10 µM Aβ42 and buffer washout): reduced the leakage current almost to the control values; effect of washout with the peptide on current amplitude after Aβ42 (rat α4β2 nAChR; 100 µM in washout buffer, 100 µM ACh): fully revoked the inhibition induced by Aβ42; also recorded: most effective at 100 µM; amplitude of ACh-evoked currents after washout with the peptide (over the range tested) (rat α4β2 nAChR; 25–100 µM in washout buffer after 10 µM Aβ42, 100 µM ACh): dose-dependently returned to the control levels; also recorded: completely restored the receptor response; effect on ACh-evoked current in the absence of Aβ42 (rat α4β2 nAChR; α4β2 nAChR-expressing oocytes): did not affect ACh-evoked current; currents induced by the peptide itself (rat α4β2 nAChR; α4β2 nAChR-expressing oocytes, no ACh): did not induce any currents; amyloid load in the brains of AD model mice [1]: effectively reduce the amyloid load
CC(=O)N[C@@H](CCC(=O)O)C(=O)N[C@@H](CC(=O)O)C(=O)N[C@@H](C)C(=O)N[C@@H](CCCCN)C(N)=O [#16, Ac-EDAK-NH2] (Ac-EDAK-NH2) | 0.0097 ± 0.0002 | 0.136 ± 0.006 | 0.141±0.009 × 10^-2 M^-1 |  | 
CC(=O)N[C@@H](CCCNC(=N)N)C(=O)N[C@@H](C)C(=O)N[C@@H](CC(=O)O)C(=O)N[C@@H](CC(=O)O)C(N)=O [Ac-RADD-NH2] (Ac-RADD-NH2) | 0.00024 ± 4e-05 | 18.5 ± 0.1 | 800±100 × 10^-2 M^-1 |  | Kd (immobilized Aβ16; [7]): 13 µM
CC(=O)N[C@@H](CCCCN)C(=O)N[C@@H](C)C(=O)N[C@@H](CC(=O)O)C(=O)N[C@@H](CCC(=O)O)C(N)=O [#15, Ac-KADE-NH2] (Ac-KADE-NH2) | 0.0096 ± 0.0002 | 2.2 ± 0.1 | 2.2±0.1 × 10^-2 M^-1 | 4500 ± 300 | 
CC(=O)N[C@@H](CCCCN)C(=O)N[C@@H](C)C(=O)N[C@@H](CCC(=O)O)C(=O)N[C@@H](CC(=O)O)C(N)=O [#9, Ac-KAED-NH2] (Ac-KAED-NH2) | 0.019 ± 0.001 | 5.7 ± 0.9 | 3.1±0.6 × 10^-2 M^-1 | 3300 ± 700 | 
CC(=O)N[C@@H](CC(=O)O)C(=O)N[C@@H](CCC(=O)O)C(=O)N[C@@H](C)C(=O)N[C@@H](CCCNC(=N)N)C(N)=O [#12, Ac-DEAR-NH2] (Ac-DEAR-NH2) | 0.00709 ± 9e-05 | 3.58 ± 0.08 | 5.1±0.2 × 10^-2 M^-1 | 1980 ± 70 | 
Ac-HAEE-NH2 [Ac-HAEE-NH2 tetrapeptide] |  |  |  |  | Kd (Aβ16-G4-C, [Ac]-…-[NH2]): 90 µM; koff (Aβ16-G4-C, [Ac]-…-[NH2]): 4e-05 s⁻¹; kon (Aβ16-G4-C, [Ac]-…-[NH2]): 0.37 M⁻¹ s⁻¹
Ac-RADD-NH2 [Ac-RADD-NH2] |  |  |  |  | Kd (Aβ16-G4-C, [Ac]-…-[NH2]): 13 µM
